From patent publication US8815909B2, “Diaminocyclohexane compounds and uses thereof” (Bristol-Myers Squibb Company, priority 2011, dated 2014) come the findings set out here.

In the assay the target is T1, human Y4 receptor (Homo sapiens, UniProt P50391).
T1 construct: expressed in transfected cells
The assay is described as follows: NPY4 cAMP HTRF Agonist Assay (inhibitory cAMP assay, Gi activation by Y4 agonism). In kind it is cell-based. In short, it runs like this: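 Y4 agonism read as lowered forskolin-stimulated cAMP (HTRF, 1 h detection at room temperature). Stable human Y4 CHO clone, 5000 cells/well, incubated 30 min at room temperature with compounds plus forskolin and IBMX in PBS.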

The mark [1] stands for this setting: second TABLE 1, R2 is Phenyl-CF3, read-out: hY4 CAMP EC50.
[2] abbreviates: human Y4 receptor, cAMP, read-out: hY4 CAMP EC50.
The mark [3] stands for this setting: human Y4 stable CHO clonal cells, forskolin + IBMX, read-out: NPY4 cAMP HTRF Agonist Assay EC50.
Setting [4] is: TABLE 7, R2 is Pyridinyl-oxadiazole-CH3, read-out: hY4 CAMP EC50.

Where a name gives a salt, the structure may show the parent alone. Read-outs that look alike come from different tables or passages of the source.

T1 sequence (P50391 whole entry): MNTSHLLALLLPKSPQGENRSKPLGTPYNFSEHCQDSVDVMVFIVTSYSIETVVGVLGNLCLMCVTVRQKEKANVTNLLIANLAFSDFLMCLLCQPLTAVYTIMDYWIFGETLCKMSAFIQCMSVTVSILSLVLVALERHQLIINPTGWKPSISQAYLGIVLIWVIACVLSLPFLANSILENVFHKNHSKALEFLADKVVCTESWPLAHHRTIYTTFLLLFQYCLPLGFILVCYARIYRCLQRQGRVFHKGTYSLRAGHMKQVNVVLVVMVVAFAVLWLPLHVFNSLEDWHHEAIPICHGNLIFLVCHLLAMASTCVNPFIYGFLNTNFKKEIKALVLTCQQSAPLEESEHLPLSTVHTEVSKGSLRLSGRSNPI

For `N#Cc1ccc(N2C[C@@H]3C[C@H](N[C@@H]4CCCC[C@H]4Nc4ncc(-c5cccc(C(N)=O)c5)o4)[C@H]2C3)cc1` [Example 264], the EC50 (TABLE 2, R2 is Phenyl-CN, read-out: hY4 CAMP EC50) is 7 nM. `N#Cc1cnc(N[C@@H]2CCCC[C@H]2N[C@H]2CCCN(c3ccc(C(F)(F)F)cc3)C2)s1` [Example 193]: under setting [1], the concentration giving a half-maximal response (EC50) was determined as 70 nM. As to `CC(C)(C)OC(=O)Nc1cccc(-c2cnc(N[C@@H]3CCCC[C@H]3N[C@H]3CCCN(c4ccc5ncnn5c4)C3)o2)c1` [Example 488], the EC50 under setting [2] was 699 nM. `Cc1nnc(-c2ccc(N3CCCC(N[C@@H]4CCCC[C@H]4Nc4cc(-c5ccc(F)cc5)ccn4)C3)cc2)o1` (stereo partly drawn) [Example 364]: under setting [2], the concentration giving a half-maximal response (EC50) came out at 3 nM. On the same count and under the same terms, for `C[C@]1(N[C@H]2CCCC[C@@H]2Nc2cc(-c3cccc(C(N)=O)c3)ccn2)CCCN(c2cnc(C(F)(F)F)nc2)C1` [Example 418] the value was 48 nM.

As to `N#Cc1ccc(N2CCC[C@H](N[C@@H]3CCCC[C@H]3Nc3ncc(-c4ccc(OC(F)(F)F)cc4)o3)C2)cc1` [Example 56, 4-((S)-3-((1R,2R)-2-(5-(4-(Trifluoromethoxy)phenyl)oxazol-2-ylamino)cyclohexylamino)piperidin-1-yl)benzonitrile], under setting [3], the EC50 was 23 nM. `Cc1nnc(-c2ccc(N3CCCC(N[C@@H]4CCCC[C@H]4Nc4cc(-c5cncc6ccccc56)ccn4)C3)cc2)o1` (stereo partly drawn) [Example 371]: the EC50 under setting [2] is 18 nM. `Cc1nnc(-c2ccc(N3CCC[C@H](N[C@@H]4CCCC[C@H]4Nc4nccc(-c5ccccc5)n4)C3)cc2)o1` [Example 84, (1R,2R)—N1-((S)-1-(4-(5-Methyl-1,3,4-oxadiazol-2-yl)phenyl)piperidin-3-yl)-N2-(4-phenylpyrimidin-2-yl)cyclohexane-1,2-diamine bis-trifluoroacetate]: the EC50 under setting [3] is 9 nM. With `OCCCC#Cc1ccnc(N[C@@H]2CCCC[C@H]2N[C@H]2CCCN(c3ccc(C(F)(F)F)cc3)C2)c1` [Example 166], under setting [1], the EC50 stood at 17 nM. For `OCCc1cccc(-c2ccnc(N[C@@H]3CCCC[C@H]3N[C@H]3CCCN(c4ccc(C(F)(F)F)cc4)C3)c2)c1` [Example 149], the concentration for a half-maximal effect (EC50) under setting [1] was 30 nM. `Cc1nc(-c2ccc(N3CCC[C@H](N[C@@H]4CCCC[C@H]4Nc4nccc(-c5ccccc5)n4)C3)nc2)no1` [Example 391]: the EC50 under setting [4] was 2 nM. Take `NC(=O)c1cccc(-c2cnc(N[C@@H]3CCCC[C@H]3N[C@H]3C[C@@H]4C[C@H]3N(c3cnc(C(F)(F)F)nc3)C4)o2)c1` [Example 407]: the EC50 under setting [2] came to 329 nM. Regarding `O=[N+]([O-])c1ccc(N2CCC[C@H](N[C@@H]3CCCC[C@H]3Nc3ncc(-c4cccc(F)c4)o3)C2)cc1` [Example 19, (1R,2R)—N1-(5-(3-Fluorophenyl)oxazol-2-yl)-N2-((S)-1-(4-nitrophenyl)piperidin-3-yl)cyclohexane-1,2-diamine], the EC50 under setting [3] came to 23 nM. With `N#Cc1ccc(N2CCC[C@H](N[C@@H]3CCCC[C@H]3Nc3cc(-c4ccc(OC(F)F)cc4)ccn3)C2)cc1` [Example 43, 4-((S)-3-((1R,2R)-2-(4-(4-(Difluoromethoxy)phenyl)pyridin-2-ylamino)cyclohexylamino)piperidin-1-yl)benzonitrile tris-trifluoroacetate], the EC50 under setting [3] came to 18 nM.

With `Cc1nc(-c2ccc(N3CCC[C@H](N[C@@H]4CCCC[C@H]4Nc4ncc(-c5cccc(C(N)=O)c5)o4)C3)nc2)no1` [Example 396], the EC50 under setting [4] stood at 0.2 nM. On to `NC(=O)c1cccc(-c2ccnc(N[C@@H]3CCCC[C@H]3N[C@H]3CCCN(c4ccc(C(F)(F)F)cn4)C3)c2)c1` [Example 319], for which, for the setting “TABLE 5, R2 is Pyridinyl-CF3, read-out: hY4 CAMP EC50”, the EC50 turned out to be 10 nM.

For the molecule `O=C(Nc1cccc(-c2ccnc(N[C@@H]3CCCC[C@H]3N[C@H]3CCCN(c4ccc(C(F)(F)F)cc4)C3)c2)c1)OCCF` [Example 137], under setting [1], the EC50 is 2 nM. Turning to `O=[N+]([O-])c1ccc(N2CCC[C@H](N[C@@H]3CCCC[C@H]3Nc3nccc(-c4cccc(OC(F)(F)F)c4)n3)C2)cc1` [Example 29, (1R,2R)—N1-((S)-1-(4-Nitrophenyl)piperidin-3-yl)-N2-(4-(3-(trifluoromethoxy)phenyl)pyrimidin-2-yl)cyclohexane-1,2-diamine], under setting [3], the 50% effective concentration (EC50) came to 389 nM. For the molecule `NC(=O)c1cccc(-c2cnc(N[C@@H]3CCCC[C@H]3N[C@H]3C[C@@H]4C[C@H]3N(c3ncc(C(F)(F)F)cn3)C4)o2)c1` [Example 422], the 50% effective concentration (EC50) under setting [2] turned out to be 41 nM. Still for that read-out and setting: in the case of `NC(=O)c1cccc(-c2ccnc(N[C@@H]3CCCC[C@H]3N[C@H]3C[C@@H]4C[C@H]3N(c3ncc(C(F)(F)F)cn3)C4)c2)c1` [Example 424] it was 69 nM. `FC(F)(F)Oc1ccc(-c2cnc(N[C@@H]3CCCC[C@H]3N[C@H]3CCCN(c4ccc(-n5cccn5)cc4)C3)o2)cc1` [Example 63, (1R,2R)—N1-((S)-1-(4-(1H-Pyrazol-1-yl)phenyl)piperidin-3-yl)-N2-(5-(4-(trifluoromethoxy)phenyl)oxazol-2-yl)cyclohexane-1,2-diamine trifluoroacetate]: the concentration giving a half-maximal response (EC50) under setting [3] is 174 nM.

On to `N#Cc1ccc(N2CCC[C@H](N[C@@H]3CCCC[C@H]3Nc3cc(-c4ccc(O)cc4)ccn3)C2)cc1` [Example 45, 4-((S)-3-((1R,2R)-2-(4-(4-Hydroxyphenyl)pyridin-2-ylamino)cyclohexylamino)piperidin-1-yl)benzonitrile tris-trifluoroacetate], for which the EC50 under setting [3] is 19 nM. On to `FC(F)(F)c1ccc(N2CCC[C@H](N[C@@H]3CCCC[C@H]3Nc3ncc(-c4cccc(-c5nnn[nH]5)c4)o3)C2)cc1` [Example 122], for which, under setting [1], the EC50 came to 319 nM. Consider `COc1cccc(-c2ccnc(N[C@@H]3CCCC[C@H]3N[C@H]3CCCN(c4ccc([N+](=O)[O-])cc4)C3)n2)c1` [Example 30, (1R,2R)—N1-(4-(3-Methoxyphenyl)pyrimidin-2-yl)-N2-((S)-1-(4-nitrophenyl)piperidin-3-yl)cyclohexane-1,2-diamine], for which the EC50 under setting [3] worked out at 203 nM.

Take `N#Cc1cnc(N2CCC[C@H](N[C@@H]3CCCC[C@H]3Nc3cc(-c4cccc(C(N)=O)c4)ccn3)C2)nc1` [Example 430]: the concentration giving a half-maximal response (EC50) under setting [2] came out at 142 nM.

In the case of `N#Cc1ccc(N2CCC[C@H](N[C@@H]3CCCC[C@H]3Nc3nccc(-c4cccc(OC(F)(F)F)c4)n3)C2)cc1` [Example 61, 4-((S)-3-((1R,2R)-2-(4-(3-(Trifluoromethoxy)phenyl)pyrimidin-2-ylamino)cyclohexylamino)piperidin-1-yl)benzonitrile bis-trifluoroacetate], the EC50 under setting [3] turned out to be 861 nM.

As to `Cn1nnc(-c2ccc(N3CCC[C@H](N[C@@H]4CCCC[C@H]4Nc4ncc(-c5ccc(OC(F)(F)F)cc5)o4)C3)cc2)n1` [Example 499], the concentration for a half-maximal effect (EC50) under setting [2] came to 1.4 nM. As to `N#Cc1ccc(N2CCC[C@H](N[C@@H]3CCCC[C@H]3Nc3ncc(-c4ccc(OC(F)(F)F)cc4)o3)C2)cc1F` [Example 49, 2-Fluoro-4-((S)-3-((1R,2R)-2-(5-(4-(trifluoromethoxy)phenyl)oxazol-2-ylamino)cyclohexylamino)piperidin-1-yl)benzonitrile bis-trifluoroacetate], the concentration for a half-maximal effect (EC50) under setting [3] was found to be 2 nM. The same measure, in the same setting: for `COC(=O)Nc1cccc(-c2cnc(N[C@@H]3CCCC[C@H]3N[C@H]3CCCN(c4cnc(C(F)(F)F)nc4)C3)o2)c1` [Example 103, Methyl (3-(2-((1R,2R)-2((S)-1-(2-trifluoromethyl)pyrimidin-5-yl)piperidin-3-ylamino)cyclohexylamino)oxazol-5-yl)phenylcarbamate] the value was 3 nM.

For the molecule `CCCC#Cc1ccnc(N[C@@H]2CCCC[C@H]2N[C@H]2CCCN(c3ccc(C(F)(F)F)cc3)C2)c1` [Example 185], the EC50 under setting [1] was found to be 218 nM.
